Source: patent EP0938471B1, “THE PREPARATION AND USE OF ORTHO-SULFONAMIDO ARYL HYDROXAMIC ACIDS AS MATRIX METALLOPROTEINASE AND TACE INHIBITORS” (priority 1996, dated 1998)
Counter-ions that a name gives are not always drawn. Like-named read-outs stand apart in the source and are kept apart here.

Legend:
Type in all cases: biochemical
MMP-9 = MMP-9 (Homo sapiens, UniProt P14780); assay: MMP-9 inhibition (thiopeptide or fluorescent peptide substrate assay)
MMP-1 = target: T1, MMP-1 (Homo sapiens, UniProt P03956); assay: MMP-1 inhibition (thiopeptide or fluorescent peptide substrate assay); settings: for IC50: read-out: MMP-1 IC50
T1 sequence (P03956 100-469): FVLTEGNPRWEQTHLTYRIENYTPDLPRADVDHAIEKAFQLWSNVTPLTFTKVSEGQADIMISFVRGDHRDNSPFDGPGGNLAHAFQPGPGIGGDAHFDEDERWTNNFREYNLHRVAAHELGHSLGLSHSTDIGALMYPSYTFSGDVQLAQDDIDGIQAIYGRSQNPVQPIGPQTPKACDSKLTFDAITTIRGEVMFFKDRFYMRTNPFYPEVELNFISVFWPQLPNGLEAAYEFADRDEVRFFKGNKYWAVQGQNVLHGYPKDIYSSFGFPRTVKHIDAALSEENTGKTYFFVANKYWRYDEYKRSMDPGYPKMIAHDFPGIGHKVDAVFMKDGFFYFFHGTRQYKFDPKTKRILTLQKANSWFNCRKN

TACE = TACE (Homo sapiens, UniProt P78536); assay: TACE inhibition (fluorescent peptidyl substrate); settings: for inhibition at 1 µM: at 1µM concentration
TACE, sequence (P78536 215-824): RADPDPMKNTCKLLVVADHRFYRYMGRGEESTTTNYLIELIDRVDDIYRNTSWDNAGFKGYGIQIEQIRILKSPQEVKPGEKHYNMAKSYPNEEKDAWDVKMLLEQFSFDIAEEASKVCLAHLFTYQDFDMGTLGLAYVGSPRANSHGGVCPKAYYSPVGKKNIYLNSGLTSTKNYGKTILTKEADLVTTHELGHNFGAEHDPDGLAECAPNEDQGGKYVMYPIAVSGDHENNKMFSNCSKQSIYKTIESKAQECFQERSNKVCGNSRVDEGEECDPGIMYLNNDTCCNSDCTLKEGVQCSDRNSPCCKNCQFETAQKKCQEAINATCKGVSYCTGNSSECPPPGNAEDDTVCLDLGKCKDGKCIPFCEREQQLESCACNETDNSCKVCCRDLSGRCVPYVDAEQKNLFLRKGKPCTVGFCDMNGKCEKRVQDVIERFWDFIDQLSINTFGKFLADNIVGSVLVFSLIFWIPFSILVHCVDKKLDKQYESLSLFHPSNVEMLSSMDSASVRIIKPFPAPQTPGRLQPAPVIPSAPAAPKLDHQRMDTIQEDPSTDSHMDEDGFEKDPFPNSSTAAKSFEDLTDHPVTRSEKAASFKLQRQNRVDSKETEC

MMP-13 = MMP-13 (Homo sapiens, UniProt P45452); assay: MMP-13 inhibition (thiopeptide or fluorescent peptide substrate assay)

MMP-9, sequence (P14780 94-707): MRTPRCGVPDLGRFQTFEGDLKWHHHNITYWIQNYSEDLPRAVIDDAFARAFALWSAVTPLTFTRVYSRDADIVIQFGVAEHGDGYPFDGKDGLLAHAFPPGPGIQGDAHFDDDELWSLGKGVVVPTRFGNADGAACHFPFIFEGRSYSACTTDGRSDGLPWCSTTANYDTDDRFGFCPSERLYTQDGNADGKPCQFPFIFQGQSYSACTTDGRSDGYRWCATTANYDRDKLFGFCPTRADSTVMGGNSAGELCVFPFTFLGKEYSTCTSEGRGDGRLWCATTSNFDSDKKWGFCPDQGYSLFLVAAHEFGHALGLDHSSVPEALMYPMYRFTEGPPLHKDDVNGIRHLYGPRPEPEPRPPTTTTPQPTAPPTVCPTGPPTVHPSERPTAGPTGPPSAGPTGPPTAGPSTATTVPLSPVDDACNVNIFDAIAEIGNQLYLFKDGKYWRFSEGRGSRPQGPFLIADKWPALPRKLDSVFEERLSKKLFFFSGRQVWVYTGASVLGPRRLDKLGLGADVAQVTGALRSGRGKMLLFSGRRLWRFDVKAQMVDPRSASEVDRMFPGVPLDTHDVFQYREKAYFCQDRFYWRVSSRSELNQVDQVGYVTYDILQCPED

Molecule	IC50 (MMP-9; read-out: MMP-9 IC50)	IC50 (MMP-1)	IC50 (MMP-13; read-out: MMP-13 IC50)	IC50 (TACE; read-out: TACE IC50)	further results
3-Methyl-2-[4-(pyridin-4-yloxy)-benzensulfonylamino]-N-hydroxy-benzamide [Example 417]	6.8 nM	3240 nM	–	–	–
COc1ccc(S(=O)(=O)N(Cc2ccccc2)c2ccccc2C(=O)NO)cc1 [Example 23, 2-[Benzyl-(4-methoxy-benzenesulfonyl)-amino]-N-hydroxy-benzamide]	–	639 nM	–	> 1000 nM	IC50 (MMP-9): 650 nM
COc1ccc(S(=O)(=O)N(Cc2ccccc2)c2c(Cl)cccc2C(=O)NO)cc1 [Example 24, 2-[Benzyl-(4-methoxy-benzenesulfonyl)-amino]-3-chloro-N-hydroxy-benzamide]	31 nM	398 nM	–	–	–
COc1ccc(S(=O)(=O)N(Cc2ccccc2)c2c(C)cccc2C(=O)NO)cc1 [Example 28, 2-[Benzyl-(4-methoxy-benzenesulfonyl)-amino]-N-hydroxy-3-methyl-benzamide]	–	–	–	460 nM	IC50 (MMP-13): 50 nM
COc1ccc(S(=O)(=O)N(Cc2ccccc2)c2c(OC)cccc2C(=O)NO)cc1 [Example 101, 2-[Benzyl-(4-methoxy-benzenesulfonyl)-amino]-N-hydroxy-3-methoxy-benzamide]	–	267 nM	–	422 nM	IC50 (MMP-9): 23 nM
COc1ccc(S(=O)(=O)N(Cc2ccccc2)c2c(C(=O)NO)cccc2C(F)(F)F)cc1 [Example 125, 2-[Benzyl-(4-methoxy-benzenesulfonyl)-amino]-N-hydroxy-3-trifluoromethyl-benzamide]	–	> 1000 nM	–	300 nM	IC50 (MMP-13): 134 nM
COc1ccc(S(=O)(=O)N(C)c2c(CN3CCN(C)CC3)cccc2C(=O)NO)cc1 [Example 194, N-Hydroxy-2-[(4-methoxybenzenesulfonyl)-methylamino]-3-(4-methylpiperazin-1-ylmethyl)-benzamide]	–	306 nM	12 nM	154 nM	–
CCN(CC)Cc1cc(C)c(N(Cc2ccccc2)S(=O)(=O)c2ccc(OC)cc2)c(C(=O)NO)c1 [Example 282, 2-[Benzyl-(4-methoxy-benzenesulfonyl)-amino]-5-diethylaminomethyl-N-hydroxy-3-methyl-benzamide]	–	1050 nM	113 nM	–	inhibition at 1 µM (TACE): 44%
CCCOc1ccc(S(=O)(=O)N(Cc2ccccc2)c2c(C)cc(C)cc2C(=O)NO)cc1 [Example 303, 2-[Benzyl-(4-propoxy-benzenesulfonyl)-amino]-N-hydroxy-3,5-dimethyl-benzamide]	64 nM	2780 nM	104 nM	–	–
Cc1cc(C)c(N(Cc2ccccc2)S(=O)(=O)c2ccc(OC(C)C)cc2)c(C(=O)NO)c1 [Example 304, 2-[Benzyl-(4-isopropoxy-benzenesulfonyl)-amino]-N-hydroxy-3,5-dimethyl-benzamide]	–	4100 nM	305 nM	–	inhibition at 1 µM (TACE): 25%
COc1ccc(S(=O)(=O)N(Cc2ccccc2)c2c(C(=O)NO)cccc2N(C)C)cc1 [Example 390, 2-[Benzyl-(4-methoxy-benzenesulfonyl)-amino]-3-dimethylamino-N-hydroxy-benzamide]	–	–	–	–	inhibition at 1 µM (TACE): 39%; IC50 (MMP-13): 531 nM; inhibition at 1 µM (MMP-1; read-out: MMP-1 % inhibition, footnote: 1µM): 19%
COc1ccc(S(=O)(=O)N(Cc2cccnc2)c2c(C)cc(-c3ccccc3)cc2C(=O)NO)cc1 [Example 397, 4-[(4-Methoxy-benzenesulfonyl)-pyridin-3-ylmethyl-amino]-5-methyl-biphenyl-3-carboxylic acid hydroxyamide hydrochloride salt]	–	–	–	–	IC50 (TACE): 64 nM; IC50 (MMP-9): 3 nM
COc1ccc(S(=O)(=O)N(Cc2cccnc2)c2c(C)cc(-c3ccsc3)cc2C(=O)NO)cc1 [Example 398, N-Hydroxy-2-[(4-methoxy-benzenesulfonyl)-pyridin-3-ylmethyl-amino]-3-methyl-5-thiophen-3-yl-benzamide hydrochloride salt]	2 nM	85 nM	–	56 nM	–
COc1ccc(S(=O)(=O)N(Cc2cccnc2)c2c(C)cc(-c3cccc(C(F)(F)F)c3)cc2C(=O)NO)cc1 [Example 406, 4-[(4-Methoxy-benzenesulfonyl)-pyridin-3-ylmethyl-amino]-5-methyl-3'-trifluoromethyl-biphenyl-3-carboxylic acid hydroxyamide hydrochloride salt]	1.1 nM	–	–	–	–
Cc1cccc(C(=O)NO)c1N(Cc1ccc(Cl)cc1)S(=O)(=O)c1ccc(-c2ccccn2)s1 [Example 407, 2-[(4-Chloro-benzyl)-(5-pyridin-2-yl-thiophene-2-sulfonyl)-amino]-N-hydroxy-3-methyl-benzamide]	199 nM	1690 nM	35 nM	–	–
Cc1ccc(CN(c2c(C)cccc2C(=O)NO)S(=O)(=O)c2ccc(-c3ccccn3)s2)cc1C [Example 408, 2-[(3,4-Dimethyl-benzyl)-(5-pyridin-2-yl-thiophene-2-sulfonyl)-amino]-N-hydroxy-3-methyl-benzamide]	731 nM	3450 nM	148 nM	–	–

Second part, led by results:

IC50 (MMP-9; read-out: MMP-9 IC50)	IC50 (MMP-1)	IC50 (MMP-13; read-out: MMP-13 IC50)	Molecule	IC50 (TACE; read-out: TACE IC50)	further results
346 nM	884 nM	982 nM	COc1ccc(S(=O)(=O)N(Cc2ccccc2)c2cc(C)ccc2C(=O)NO)cc1 [Example 26, 2-[Benzyl-(4-methoxy-benzenesulfonyl)-amino]-N-hydroxy-4-methyl-benzamide]	> 1000 nM	–
440 nM	1570 nM	717 nM	COc1ccc(S(=O)(=O)N(Cc2ccccc2)c2cccc(C)c2C(=O)NO)cc1 [Example 27, 2-[Benzyl-(4-methoxy-benzenesulfonyl)-amino]-N-hydroxy-6-methyl-benzamide]	> 1000 nM	–
3 nM	24 nM	–	COc1ccc(S(=O)(=O)N(Cc2ccccc2)c2c(OCC(=O)NO)cccc2C(=O)NO)cc1 [Example 54, 2-[Benzyl-(4-methoxy-benzenesulfonyl)-amino]-N-hydroxy-3-hydroxycarbamoylmethoxy-benzamide]	–	IC50 (MMP-13): 4 nM
131 nM	–	–	CCCCC#Cc1cc(C)c(N(Cc2ccccc2)S(=O)(=O)c2ccc(OC)cc2)c(C(=O)NO)c1 [Example 77, 2-[Benzyl-(4-methoxy-benzenesulfonyl)-amino]-5-hex-1-ynyl-N-hydroxy-3-methyl-benzamide]	–	–
663 nM	–	–	COc1ccc(S(=O)(=O)N(Cc2cccnc2)c2ccccc2C(=O)NO)cc1 [Example 85, N-Hydroxy-2-[(4-methoxy-benzenesulfonyl)-pyridin-3-ylmethyl-amino]-benzamide]	> 1000 nM	–
29 nM	314 nM	–	COc1ccc(S(=O)(=O)N(Cc2ccccc2)c2c(C(=O)NO)ccc(Cl)c2C)cc1 [Example 102, 2-[Benzyl-(4-methoxy-benzenesulfonyl)-amino]-4-chloro-N-hydroxy-3-methyl-benzamide]	162 nM	–
104 nM	> 1000 nM	134 nM	COc1ccc(S(=O)(=O)N(Cc2ccccc2)c2c(C(=O)NO)cc(OC)c(OC)c2OC)cc1 [Example 156, 2-[Benzyl-(4-methoxy-benzenesulfonyl)-amino]-N-hydroxy-3,4,5-trimethoxy-benzamide]	–	–
11 nM	> 1000 nM	62 nM	COc1ccc(S(=O)(=O)N(Cc2cccnc2)c2c(C(=O)NO)cc(OC)c(OC)c2OC)cc1 [Example 158, N-Hydroxy-3,4,5-trimethoxy-2-[(4-methoxy-benzenesulfonyl)-pyridin-3-ylmethyl-amino]-benzamide]	–	–
286 nM	–	350 nM	COc1ccc(S(=O)(=O)N2CCCOc3cccc(C(=O)NO)c32)cc1 [Example 165, 5-(4-Methoxy-benzenesulfonyl)-2,3,4,5-tetrahydro-1,5-benzoxazepine-6-carboxylic acid hydroxyamide]	–	–
203 nM	–	> 300 nM	COc1ccc(S(=O)(=O)N2Cc3ccccc3COc3cccc(C(=O)NO)c32)cc1 [Example 166, 12-(4-Methoxy-benzenesulfonyl)-11,12-dihydro-6H-dibenz[b,f][1,4]oxazocine-1-carboxylic acid hydroxyamide]	–	–
42 nM	–	178 nM	COc1ccc(S(=O)(=O)N2CCCCOc3cccc(C(=O)NO)c32)cc1 [Example 167, 6-(4-Methoxy-benzenesulfonyl)-3,4,5,6-tetrahydro-2H-1,6-benzoxazocine-7-carboxylic acid hydroxyamide]	–	–
–	291 nM	24 nM	CCOc1ccc(S(=O)(=O)N(Cc2ccccc2)c2c(C)cc(C)cc2C(=O)NO)cc1 [Example 302, 2-[Benzyl-(4-ethoxy-benzenesulfonyl)-amino]-N-hydroxy-3,5-dimethyl-benzamide]	173 nM	–
6.4 nM	207 nM	–	COC(=O)c1cccc(C(=O)NO)c1N(Cc1cccnc1)S(=O)(=O)c1ccc(OC)cc1 [Example 369, N-Hydroxy-2-[(4-methoxy-benzenesulfonyl)-pyridin-3-ylmethyl-amino]-isophthalamic acid methyl ester]	–	IC50 (TACE): 38 nM
6.5 nM	–	–	COc1ccc(S(=O)(=O)N(Cc2ccc(N3CCN(C)CC3)cc2)c2c(C)cccc2C(=O)NO)cc1 [Example 382, N-Hydroxy-2-{(4-methoxy-benzenesulfonyl)-[4-(4-methyl-piperazin-1-yl)-benzyl]-amino}-3-methyl-benzamide]	–	IC50 (TACE): 146 nM; IC50 (MMP-13): 20 nM
